Data on two compounds can be found in US11672786B2, “Methods of treating diseases associated with repeat instability” (The Hospital for Sick Children, priority 2016, dated 2023).

The subject of one series is HT1080-(CAG)850 cells. Kind of series: cellular distribution by confocal microscopy. Format: cell-based, human. Conditions: 50-μM NBD-labeled NA, 48 hr. The procedure:
Scale bar represents 20 μm. […] The cell viability was estimated with WST-1 assays. Values represent the means of three independent measures±SD. […] Error bars indicate the SD of triplicate experiments. […] The dashed line indicates the peak CAG size. Allele lengths are grouped in bins spanning 10 repeats. More than 230 alleles were sized per group.
HT1080-(CAG)850 cells were incubated with 50-μM NBD-labeled NA for 48 hr and Cell Light Plasma Membrane-RFP, BacMam 2.0 (Life Technologies, Carlsbad, Calif.), then fixed for 15 min at RT with 4% paraformaldehyde and washed 2 times for 10 min in phosphate buffered saline (PBS). Cells were mounted with Vectashield hard-set mounting media that contains DAPI (Vector Laboratories, Burlingame, Calif.). Fluorescence images were obtained using Olympus FV1000D confocal laser scanning microscope (Olympus, Tokyo, Japan).

The test system of the next series is CAG expansions. The conditions noted are these: by unknown processes; cited from earlier work.

Regarding `Cc1ccc2ccc(NC(=O)CCN(CCCNC(=O)CCCNC(=O)CCCCCNc3ccc([N+](=O)[O-])c4nonc34)CCC(=O)NCc3ccc4ccc(=O)[nH]c4n3)nc2n1` [NBD-labeled NA, N-(4-((3-((3-((7-methyl-1,8-naphthyridin-2-yl)amino)-3-oxopropyl)(3-oxo-3-(((7-oxo-7,8-dihydro-1,8-naphthyridin-2-yl)methyl)amino)propyl)amino)propyl)amino)-4-oxobutyl)-6-((7-nitrobenzo[c][1,2,5]oxadiazol-4-yl)amino)hexanamide], the cellular distribution entry in the series on HT1080-(CAG)850 cells was “distributed throughout the nuclei and cytoplasm”.

In the case of `CC(C)C[C@@H](/C=C/[C@H](Cc1ccccc1)C(=O)N1CCC[C@H]1C(=O)N[C@H](C(=O)N[C@@H](CCCNC(=O)OCc1ccccc1)C(=O)NC1CC(C)(C)N([O])C(C)(C)C1)C(C)C)NC(=O)OC(C)(C)C` [XJB-5-131], the “effect on CAG expansions” value with CAG expansions is reported as “mildly suppress CAG expansions rather than induce contractions”.
